Data from patent publication US8916565B2, “Pyrrolopyrazine-spirocyclic piperidine amides as modulators of ion channels” (priority 2011, dated 2014).

Target: human NaV subtype, like NaV 1.7 (Homo sapiens, UniProt Q15858)
Experiment: E-VIPR optical membrane potential assay with electrical stimulation
Assay type: cell-based
Conditions: active against one or more sodium channels; Table 3 does not name the assay or NaV subtype; read-out: Binned Activity Data (IC50)

Sequence of human NaV subtype, like NaV 1.7 (Q15858 whole entry): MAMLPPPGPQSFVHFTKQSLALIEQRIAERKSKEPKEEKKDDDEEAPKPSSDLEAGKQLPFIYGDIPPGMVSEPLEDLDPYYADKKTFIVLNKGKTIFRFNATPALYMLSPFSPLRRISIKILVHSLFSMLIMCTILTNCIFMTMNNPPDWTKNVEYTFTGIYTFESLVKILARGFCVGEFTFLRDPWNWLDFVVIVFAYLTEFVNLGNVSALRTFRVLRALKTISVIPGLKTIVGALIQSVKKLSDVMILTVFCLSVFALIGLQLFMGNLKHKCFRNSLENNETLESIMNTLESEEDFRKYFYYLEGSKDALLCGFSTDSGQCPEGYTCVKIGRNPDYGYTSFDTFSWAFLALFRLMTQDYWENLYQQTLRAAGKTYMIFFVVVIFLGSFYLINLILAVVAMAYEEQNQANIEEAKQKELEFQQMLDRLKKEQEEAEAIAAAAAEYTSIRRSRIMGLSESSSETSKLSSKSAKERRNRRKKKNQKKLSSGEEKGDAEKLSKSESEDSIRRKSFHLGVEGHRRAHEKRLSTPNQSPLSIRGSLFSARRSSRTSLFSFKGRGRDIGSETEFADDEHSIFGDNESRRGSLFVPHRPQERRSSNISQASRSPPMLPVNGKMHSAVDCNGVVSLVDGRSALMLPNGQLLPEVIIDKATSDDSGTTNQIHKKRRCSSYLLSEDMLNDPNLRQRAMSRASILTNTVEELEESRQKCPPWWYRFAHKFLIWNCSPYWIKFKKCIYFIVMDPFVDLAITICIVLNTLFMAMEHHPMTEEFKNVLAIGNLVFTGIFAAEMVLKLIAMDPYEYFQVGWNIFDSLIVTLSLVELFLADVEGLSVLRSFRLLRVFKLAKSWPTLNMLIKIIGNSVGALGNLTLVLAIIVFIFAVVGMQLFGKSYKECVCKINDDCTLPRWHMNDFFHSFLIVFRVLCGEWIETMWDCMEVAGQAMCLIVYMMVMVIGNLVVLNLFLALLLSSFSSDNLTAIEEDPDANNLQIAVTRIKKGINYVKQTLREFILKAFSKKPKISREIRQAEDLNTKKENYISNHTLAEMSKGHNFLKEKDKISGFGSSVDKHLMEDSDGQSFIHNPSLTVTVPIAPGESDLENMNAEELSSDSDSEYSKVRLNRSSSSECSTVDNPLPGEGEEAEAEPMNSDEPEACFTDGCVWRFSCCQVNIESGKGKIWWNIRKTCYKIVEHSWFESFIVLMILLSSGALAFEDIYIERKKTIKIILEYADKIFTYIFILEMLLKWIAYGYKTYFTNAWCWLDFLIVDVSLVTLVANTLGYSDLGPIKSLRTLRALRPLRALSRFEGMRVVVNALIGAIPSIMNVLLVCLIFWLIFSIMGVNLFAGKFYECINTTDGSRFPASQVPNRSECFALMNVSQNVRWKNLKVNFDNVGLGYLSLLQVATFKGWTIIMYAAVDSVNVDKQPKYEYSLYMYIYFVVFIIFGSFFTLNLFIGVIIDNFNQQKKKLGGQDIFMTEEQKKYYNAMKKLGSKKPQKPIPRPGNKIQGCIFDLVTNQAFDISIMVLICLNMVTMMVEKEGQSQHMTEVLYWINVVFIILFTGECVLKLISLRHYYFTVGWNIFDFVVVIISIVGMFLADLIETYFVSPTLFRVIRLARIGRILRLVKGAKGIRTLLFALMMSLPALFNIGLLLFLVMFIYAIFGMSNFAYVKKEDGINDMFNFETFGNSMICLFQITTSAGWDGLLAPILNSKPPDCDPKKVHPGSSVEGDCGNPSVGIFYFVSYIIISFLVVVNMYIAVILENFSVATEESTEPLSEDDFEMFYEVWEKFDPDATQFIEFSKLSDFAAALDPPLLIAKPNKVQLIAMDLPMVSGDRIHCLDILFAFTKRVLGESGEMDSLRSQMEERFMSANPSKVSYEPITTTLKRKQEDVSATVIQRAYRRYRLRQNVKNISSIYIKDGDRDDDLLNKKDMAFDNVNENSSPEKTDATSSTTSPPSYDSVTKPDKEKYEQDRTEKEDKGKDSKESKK

Structure (SMILES)	IC50
CN1CCn2c(C(F)(F)F)ccc2C12CCN(C(=O)c1ccc(-c3ccccc3)cc1)CC2 [Compound 659]	> 5000 nM
CC(C)CCOc1ccc(C(=O)N2CCC3(CC2)c2ccc(C(=O)C(C)(C)C)n2CCN3C)cc1 [Compound 661]	≤ 2000 nM
COCCN1CCn2c(C(F)(F)F)ccc2C12CCN(C(=O)c1ccccc1OC(F)(F)F)CC2 [Compound 662]	≤ 2000 nM
CC(=O)c1ccc2n1CCN(C)C21CCN(C(=O)c2ccc(COc3ccccc3)cc2)CC1 [Compound 665]	≤ 2000 nM
COc1cc(C(=O)N2CCC3(CC2)NC(C)(C)Cn2c(C(F)(F)F)ccc23)ccc1OC(C)(C)C [Compound 667]	≤ 2000 nM
C[C@H]1Cn2c(C(=O)C(F)(F)F)ccc2C2(CCN(C(=O)c3ccc(S(=O)(=O)NC4CC4)cc3)CC2)N1C [Compound 669]	≤ 2000 nM
CN1CCn2c(Cl)ccc2C12CCN(C(=O)c1ccc(S(=O)(=O)C(F)F)cc1)CC2 [Compound 670]	> 5000 nM
CCCN(CCC)S(=O)(=O)c1ccc(C(=O)N2CCC3(CC2)c2ccc(C(=O)C(F)(F)F)n2CCN3C)cc1 [Compound 671]	≤ 2000 nM
COc1c(C)cccc1C(=O)N1CCC2(CC1)c1ccc(C(=O)C(F)(F)F)n1C[C@H](C)N2C [Compound 675]	≤ 2000 nM
CN1CCn2c(Cl)ccc2C12CCN(C(=O)c1cccc3cccnc13)CC2 [Compound 679]	2000 to 5000 nM
CN1CCn2c(C(=O)C(C)(C)C)ccc2C12CCN(C(=O)c1ccc(S(=O)(=O)C(C)(C)C)cc1)CC2 [Compound 680]	≤ 2000 nM
Cc1cc(C(=O)N2CCC3(CC2)c2ccc(C(=O)C(C)(C)C)n2CCN3C)ccc1S(C)(=O)=O [Compound 682]	> 5000 nM
CN1CCn2c(C(=O)C3(C)CC3)ccc2C12CCN(C(=O)c1ccc(O)c(C(F)(F)F)c1)CC2 [Compound 685]	≤ 2000 nM
COc1cc(C(=O)N2CCC3(CC2)NC(C)(C)Cn2c(C(=O)C(F)(F)F)ccc23)ccc1OCCC(C)C [Compound 686]	≤ 2000 nM
CN1CCn2c(C(=O)C(F)(F)F)ccc2C12CCN(C(=O)c1ccc(CC(C)(C)O)cc1)CC2 [Compound 688]	≤ 2000 nM
CN1CCn2c(C(=O)C3(C)CC3)ccc2C12CCN(C(=O)c1ccc(S(=O)(=O)C(C)(C)C)cc1)CC2 [Compound 689]	> 5000 nM
CC1Cn2c(C(F)(F)F)ccc2C2(CCN(C(=O)c3ccc(OC(C)C)c(F)c3)CC2)N1 (stereo not shown) [Compound 692]	≤ 2000 nM
COc1ccc(C(=O)N2CCC3(CC2)c2ccc(C(=O)c4ccccc4)n2CCN3C)cc1C [Compound 694]	2000 to 5000 nM
CC(C)Oc1ccc(C(=O)N2CCC3(CC2)c2ccc(C(=O)C(F)(F)F)n2C[C@H](C)N3C)c(F)c1 [Compound 695]	≤ 2000 nM

Structure (SMILES)	IC50
CCCOc1ccc(C(=O)N2CCC3(CC2)c2ccc(Cl)n2CCN3C)cc1OC [Compound 698]	2000 to 5000 nM
CCCCOc1ccc(C(=O)N2CCC3(CC2)c2ccc(C(C)=O)n2CCN3C)cc1OC [Compound 699]	≤ 2000 nM
C[C@H]1Cn2c(C(=O)C(F)(F)F)ccc2C2(CCN(C(=O)c3ccc(O)c(Cl)c3)CC2)N1C [Compound 700]	≤ 2000 nM
COCCN1CCn2c(C(F)(F)F)ccc2C12CCN(C(=O)c1ccc(C(C)(C)O)cc1)CC2 [Compound 701]	≤ 2000 nM
C[C@H]1Cn2c(C(=O)C(F)(F)F)ccc2C2(CCN(C(=O)c3ccc(S(=O)(=O)C4CC4)cc3)CC2)N1C [Compound 702]	≤ 2000 nM
CC(=O)c1ccc2n1CCN(C)C21CCN(C(=O)c2ccc(C(C)(C)O)c(F)c2)CC1 [Compound 703]	> 5000 nM
COc1cc(C(=O)N2CCC3(CC2)NC(C)(C)Cn2c(C(=O)C(F)(F)F)ccc23)ccc1C(C)(C)C [Compound 705]	≤ 2000 nM
CC1(C)Cn2c(C(=O)C(F)(F)F)ccc2C2(CCN(C(=O)c3ccc(-c4ccccc4)cn3)CC2)N1 [Compound 707]	≤ 2000 nM
O=C(c1ccc(S(=O)(=O)NC2CC2)cc1)N1CCC2(CC1)c1ccc(C(F)(F)F)n1CCN2C1CC1 [Compound 708]	≤ 2000 nM
Cc1c(O)cccc1C(=O)N1CCC2(CC1)c1ccc(C(=O)C(F)(F)F)n1CCN2C [Compound 714]	> 5000 nM
Cc1cc(C(=O)N2CCC3(CC2)NCCn2c(C(F)(F)F)ccc23)ccc1C(C)(C)O [Compound 715]	≤ 2000 nM
CNS(=O)(=O)c1ccc(C(=O)N2CCC3(CC2)c2ccc(C(F)(F)F)n2CCN3C)cc1 [Compound 716]	≤ 2000 nM
CN1CCn2c(C(=O)C(F)(F)F)ccc2C12CCN(C(=O)c1ccc(-c3ccccc3)c(F)c1)CC2 [Compound 717]	≤ 2000 nM
CN1CCn2c(C(=O)C(F)(F)F)ccc2C12CCN(C(=O)c1ccc(F)c(O)c1)CC2 [Compound 720]	> 5000 nM
CC(C)Oc1ccc(C(=O)N2CCC3(CC2)NC(C)(C)Cn2c(C(F)(F)F)ccc23)c(F)c1 [Compound 721]	≤ 2000 nM
CN1CCn2c(C(=O)C(F)(F)F)ccc2C12CCN(C(=O)c1ccc(-c3ccccc3F)cn1)CC2 [Compound 725]	> 5000 nM
COc1ccc(C(=O)N2CCC3(CC2)c2ccc(C(=O)C(F)(F)F)n2C[C@H](C)N3C)cc1C(F)(F)F [Compound 726]	≤ 2000 nM
COc1ccc(-c2ccc(C(=O)N3CCC4(CC3)c3ccc(C(=O)C(F)(F)F)n3CCN4C)cc2C)cc1 [Compound 728]	≤ 2000 nM

Further lines, results first:

IC50	Structure (SMILES)
≤ 2000 nM	CC(C)Oc1ccc(C(=O)N2CCC3(CC2)c2ccc(C(=O)C4(C)CC4)n2CCN3C)cc1CO [Compound 656]
≤ 2000 nM	Cc1cc(C(=O)N2CCC3(CC2)c2c(Cl)cc(C(F)(F)F)n2CCN3C)ncc1OC(C)C [Compound 657]
≤ 2000 nM	Cc1cc(C(=O)N2CCC3(CC2)c2ccc(C(F)(F)F)n2CCN3C)ccc1C1COC1 [Compound 658]
≤ 2000 nM	CCN(C)c1cc(C)nc2c(C(=O)N3CCC4(CC3)c3ccc(C(F)(F)F)n3CCN4C)cnn12 [Compound 660]
≤ 2000 nM	COc1ccc(C(=O)N2CCC3(CC2)c2ccc(C(=O)C(F)(F)F)n2CCN3C)cc1C [Compound 663]
≤ 2000 nM	CC(C)Oc1ccc(C(=O)N2CCC3(CC2)c2ccc(C(F)(F)C(F)(F)F)n2CCN3C)cc1Cl [Compound 664]
≤ 2000 nM	CN1CCn2c(C(F)(F)F)cc(F)c2C12CCN(C(=O)c1ccc(S(=O)(=O)NC3CC3)cc1)CC2 [Compound 666]
≤ 2000 nM	CCc1ccc(C(=O)N2CCC3(CC2)c2c(F)cc(C(F)(F)F)n2CCN3C)cc1OC [Compound 668]
≤ 2000 nM	Cc1cc(C(=O)N2CCC3(CC2)c2c(F)cc(C(F)(F)F)n2CCN3C)ccc1OC(C)C [Compound 672]
≤ 2000 nM	Cc1cc(C)n2ncc(C(=O)N3CCC4(CC3)c3ccc(C(F)(F)F)n3CCN4C)c2n1 [Compound 673]
≤ 2000 nM	CC(C)Oc1ccc(C(=O)N2CCC3(CC2)c2ccc(C(=O)C(C)C)n2CCN3C)cc1Cl [Compound 674]
≤ 2000 nM	CC(C)Oc1ccc(C(=O)N2CCC3(CC2)c2ccc(C(=O)C(F)(F)F)n2CCN3C)cc1C(F)(F)F [Compound 676]
> 5000 nM	COc1cc(C(=O)N2CCC3(CC2)c2ccc(C(F)(F)F)n2C[C@@H](C)N3C)ccc1OC(C)C [Compound 677]
2000 to 5000 nM	CC(C)Oc1ccc(C(=O)N2CCC3(CC2)c2ccc(Cl)n2CCN3C)cc1CO [Compound 678]
2000 to 5000 nM	CC(=O)c1ccc2n1CCN(C)C21CCN(C(=O)c2ccc(OCC(C)(C)O)c(C)c2)CC1 [Compound 681]
≤ 2000 nM	COC(=O)N1CCn2c(C(F)(F)F)ccc2C12CCN(C(=O)c1ccc(C(C)(C)O)c(C)c1)CC2 [Compound 683]
> 5000 nM	CCN(CC)c1ncccc1C(=O)N1CCC2(CC1)c1ccc(C(F)(F)F)n1CCN2C [Compound 684]
≤ 2000 nM	COc1cc(C(=O)N2CCC3(CC2)c2c(Cl)cc(C(F)(F)F)n2CCN3C)ccc1COCC(F)(F)F [Compound 687]

IC50	Structure (SMILES)
≤ 2000 nM	COc1cc(C(=O)N2CCC3(CC2)c2ccc(C(F)(F)F)n2CCN3C2CC2)ccc1OC(C)C [Compound 690]
≤ 2000 nM	CC(=O)c1ccc2n1CCN(C)C21CCN(C(=O)c2ccc(OC(C)C)c(C)n2)CC1 [Compound 691]
> 5000 nM	CC(C)Oc1ccc(C(=O)N2CCC3(CC2)c2ccc(Cl)n2CCN3C)cc1 [Compound 696]
≤ 2000 nM	COc1ccc(C(=O)N2CCC3(CC2)c2ccc(C(=O)C(F)(F)F)n2CCN3C)cc1Cl [Compound 697]
≤ 2000 nM	CCC(=O)c1ccc2n1CCN(C)C21CCN(C(=O)c2ccc(OC(C)C)c(C)c2)CC1 [Compound 704]
≤ 2000 nM	COc1cc(C(=O)N2CCC3(CC2)c2ccc(C(F)(F)F)n2CCN3CC(F)F)ccc1OC(C)C [Compound 706]
≤ 2000 nM	CC(C)Oc1ccc(C(=O)N2CCC3(CC2)c2ccc(C(F)(F)F)n2CCN3C)cc1CO [Compound 709]
≤ 2000 nM	Cc1cc(C(=O)N2CCC3(CC2)c2ccc(Cl)n2CCN3C)ccc1OC(C)C [Compound 710]
≤ 2000 nM	Cc1cc(C(=O)N2CCC3(CC2)c2ccc(C(=O)C(C)(C)C)n2CCN3C)ccc1OCCCO [Compound 711]
≤ 2000 nM	CC(C)COc1ccc(C(=O)N2CCC3(CC2)c2ccc(C(=O)C(F)(F)F)n2CCN3C)nc1 [Compound 712]
2000 to 5000 nM	COc1ccc(C(=O)N2CCC3(CC2)c2c(Cl)cc(C(F)(F)F)n2CCN3C)cc1C [Compound 713]
2000 to 5000 nM	CC(C)Nc1ncccc1C(=O)N1CCC2(CC1)c1ccc(C(F)(F)F)n1CCN2C [Compound 718]
2000 to 5000 nM	COc1cc(C(=O)N2CCC3(CC2)c2ccc(C(F)(F)F)n2C(CO)CN3C)ccc1OC(C)C (stereo not shown) [Compound 719]
≤ 2000 nM	COc1cc(C(=O)N2CCC3(CC2)c2ccc(C(F)(F)C(F)(F)F)n2CCN3C)ccc1OC(C)C [Compound 722]
≤ 2000 nM	Cc1cc(C(=O)N2CCC3(CC2)c2ccc(C(F)(F)F)n2CCN3CC(=O)N(C)C)ccc1OC(C)C [Compound 723]
≤ 2000 nM	CC[C@@H](C)Oc1ccc(C(=O)N2CCC3(CC2)c2ccc(C(F)(F)F)n2CCN3C)cc1OC [Compound 727]
≤ 2000 nM	CCOC(=O)N1CCn2c(C#N)ccc2C12CCN(C(=O)c1ccc(OC(C)C)c(C)n1)CC2 [Compound 729]
≤ 2000 nM	CCOc1cc(C(=O)N2CCC3(CC2)c2ccc(C(F)(F)F)n2CCN3C)ccc1OC [Compound 730]
